# Assay results reported in patent publication US20030060511A1, “Method for treatment of ocular hypertension and glaucoma” (SUCAMPO AG, priority 2001, published 2003).
# How the values were obtained:
# IOP in Normal Monkeys [1] = test: IOP in normal monkeys after single topical application of eye drops (Example 1); type: in vivo, cynomolgus monkeys; conditions: for IOP lowering (change in IOP from time 0, ΔIOP): single administration, significant vs vehicle control (Dunnett's test)
# Description: Male cynomolgus monkeys (eight monkeys, body weights 3.0-4.5 kg) were used. To the right eyes of the monkeys, 30 μL/eye of 0.005% 13,14-dihydro-15-keto-17-phenyl-18,19,20-trinor-PGF2α-isopropyl ester eye drops, 0.005% 13,14-dihydro-17-phenyl-18,19,20-trinor-PGF2α-isopropyl ester (latanoprost) eye drops or the vehicle was administered once with an interval of at least seven days, and the IOPs in the respective animals was measured.
# The animals were retained in the sitting position under systemic anesthesia with intramuscular injection of ketamine hydrochloride (Ketalar® 50, Sankyo Co. Ltd.) 7.5-10 mg/kg and their ocular surfaces were anesthetized with 0.4% oxybuprocaine hydrochloride (Benoxil® 0.4% solution, Santen Pharmaceuticals Co., Ltd.). After that, the IOP was measured with a pneumatonometer (Model 30 Classic, Mentor O & O, Inc.). The IOP was measured before (0 hour) and at 2, 4, 8, 12 and 24 hours after the administration of the test substances.
# Changes of the IOP from that of time 0 (ΔIOP) obtained in the each test groups were compared to that obtained in the vehicle-administered control group at each measurement times. Statistical analysis was made with the Dunnett's multiple comparison test. Critical rates less than 5% were evaluated to be statistically significant.
# IOP in Normal Monkeys [2] = test: IOP in normal monkeys after single topical application of eye drops, saline in the other eye (Example 2); type: in vivo, cynomolgus monkeys; conditions: 0.005% eye drops, 30 μL/eye, IOP measured up to 24 hours, compared to saline eye
# Description: Male cynomolgus monkeys (eight monkeys, body weights 3.0-4.5 kg) were used. To the right eyes of the monkeys, 30 μL/eye of 0.005% 13,14-dihydro-15-keto-18-phenyl-19,20-dinor-PGF2α-isopropyl ester eye drops or 0.005% 13,14-dihydro-15-keto-17-phenoxy-18,19,20-trinor-PGF2α-isopropyl ester eye drops were administered, and to the left eyes, 30 μL/eye of saline was administered. IOP of the animals were determined.
# The animals were retained in the sitting position under systemic anesthesia with intramuscular injection of ketamine hydrochloride (Ketalar® 50, Sankyo Co. Ltd.) 7.5-10 mg/kg and their ocular surfaces were anesthetized with 0.4% oxybuprocaine hydrochloride (Benoxil® 0.4% solution, Santen Pharmaceuticals Co., Ltd.). After that, the IOP was measured with a pneumatonometer (Model 30 Classic, Mentor O & O, Inc.). The IOPs were measured before (0 hour) and at 2, 4, 8, 12 and 24 hours after the administration of test substances.
# Changes of the IOP from that of time 0 (ΔIOP) obtained in the each test eyes ([…] eyes) were compared to those obtained in the vehicle administrated eyes (control group) at each measurement times.
# FP receptor = FP receptor (Homo sapiens, UniProt P43088); conditions: background art; cited from earlier work
# Sequence of FP receptor (P43088 whole entry): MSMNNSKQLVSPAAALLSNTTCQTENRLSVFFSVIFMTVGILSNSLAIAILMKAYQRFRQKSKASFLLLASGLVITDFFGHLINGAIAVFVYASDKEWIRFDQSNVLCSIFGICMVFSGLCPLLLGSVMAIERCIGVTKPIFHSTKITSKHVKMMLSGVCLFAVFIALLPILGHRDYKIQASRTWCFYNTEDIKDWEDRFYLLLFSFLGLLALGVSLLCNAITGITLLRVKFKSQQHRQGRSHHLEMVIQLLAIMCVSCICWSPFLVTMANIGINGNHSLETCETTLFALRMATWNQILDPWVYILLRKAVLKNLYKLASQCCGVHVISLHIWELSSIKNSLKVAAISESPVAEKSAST
Compound,Duration of IOP lowering by single administration (IOP in Normal Monkeys [2]),Affinity with / effect on FP receptor (FP receptor),other results
"CC(C)OC(=O)CCC/C=C\C[C@@H]1[C@@H](CCC(=O)CCc2ccccc2)[C@H](O)C[C@@H]1O [13,14-dihydro-15-keto-17-phenyl-18,19,20-trinor-PGF2α-isopropyl ester]",,,"Difference of ΔIOPs versus latanoprost group (IOP in Normal Monkeys [1]; 0.005% eye drops each, at any time point of the measurement (2-24 hours)): no significant difference; Duration of IOP lowering by single administration (IOP in Normal Monkeys [1]; 0.005% eye drops, 30 μL/eye, IOP measured up to 24 hours): can lower the IOP and keep the low IOP throughout the day; IOP lowering (change in IOP from time 0, ΔIOP) (IOP in Normal Monkeys [1]; 0.005% eye drops, 30 μL/eye, 4 hours after administration): 2.3±0.4 mmHg; IOP lowering (change in IOP from time 0, ΔIOP) (IOP in Normal Monkeys [1]; 0.005% eye drops, 30 μL/eye, 8 hours after administration): 2.1±0.4 mmHg; IOP lowering (change in IOP from time 0, ΔIOP) (IOP in Normal Monkeys [1]; 0.005% eye drops, 30 μL/eye, 12 hours after administration): 2.4±0.5 mmHg"
"CC(C)OC(=O)CCC/C=C\CC1C(O)CC(O)C1CCC(=O)CCCc1ccccc1 (stereo not drawn) [13,14-dihydro-15-keto-18-phenyl-19,20-dinor-PGF2α-isopropyl ester]",can lower the IOP and keep the low IOP throughout a day,,
"CCCCCCCC(=O)CC[C@@H]1[C@@H](C/C=C\CCCC(=O)OC(C)C)[C@@H](O)C[C@H]1O [isopropyl unoprostone, 13,14-dihydro-15-keto-20-ethyl-PGF2α-isopropyl ester]",,substantially no effect,
CCCCC[C@H](O)/C=C/[C@@H]1[C@@H](C/C=C\CCCC(=O)O)[C@@H](O)C[C@H]1O [PGF2α],,strong affinity,
"CC(C)OC(=O)CCC/C=C\CC1C(O)CC(O)C1CCC(=O)CCOc1ccccc1 (stereo not drawn) [13,14-dihydro-15-keto-17-phenoxy-18,19,20-trinor-PGF2α-isopropyl ester]",can lower the IOP and keep the low IOP throughout a day,,
"CC(C)OC(=O)CCC/C=C\C[C@@H]1[C@@H](CC[C@@H](O)CCc2ccccc2)[C@H](O)C[C@@H]1O [latanoprost, 13,14-dihydro-17-phenyl-18,19,20-trinor-PGF2α-isopropyl ester]",,strong affinity,
